pIC50: −log10 of the molar value.
system: not listed separately; assay: Cytotoxicity against human A-431 cells harboring wild type EGFR assessed as reduction in cell viability measured after 72 hrs by MTT assay; assay type: toxicity, cell-based; settings: not given

Going from `C=CC(=O)Nc1cccc(Nc2nc(Nc3ccc(N4CCC(N(C)C)CC4)cc3OC)nc3ccc(F)cc23)c1` to `C=CC(=O)Nc1cccc(Nc2nc(Nc3ccc(N4CCC(N(C)C)CC4)cc3)nc3ccc(F)cc23)c1`, the IC50 at 72 h falls from greater than 10000 nM to 1840 nM.

First: C=CC(=O)Nc1ccc(Nc2nc(Nc3ccc(N4CCN(C)CC4)cc3)nc3ccc(Cl)cc23)cc1
Second: C=CC(=O)Nc1cccc(Nc2nc(Nc3ccc(N4CCN(C)CC4)cc3)nc3cc(Cl)ccc23)c1
The IC50 at 72 h of the first is higher: greater than 10000 nM for the first, 7620 nM for the second.

Compared with `C=CC(=O)Nc1cccc(Nc2nc(Nc3ccc(N4CCN(C)CC4)cc3)nc3cc(OC)ccc23)c1`, `C=CC(=O)Nc1cccc(Nc2nc(Nc3ccc(N4CCN(C)CC4)cc3)nc3cc(F)ccc23)c1` is lower in IC50 at 72 h: greater than 10000 nM for the first, 9040 nM for the second.

`C=CC(=O)Nc1cccc(Nc2nc(Nc3ccc(N4CCN(C)CC4)c(F)c3)nc3ccc(Cl)cc23)c1` and `C=CC(=O)Nc1cccc(Nc2nc(Nc3ccc(N4CCN(C)CC4)cc3OC)nc3ccc(Cl)cc23)c1` are within 1.5-fold of each other in IC50 at 72 h: 2310 nM for the first, 2420 nM for the second.

`C=CC(=O)Nc1cccc(Nc2nc(Nc3ccc(N4CCOCC4)cc3)nc3ccc(Cl)cc23)c1` and `C=CC(=O)Nc1cccc(Nc2nc(Nc3ccc(N4CCC(N5CCOCC5)CC4)cc3)nc3ccc(Cl)cc23)c1` cannot be ordered by IC50 at 72 h: greater than 10000 nM for the first, greater than 10000 nM for the second.

Going from `C=CC(=O)Nc1cccc(Nc2nc(Nc3ccc(N4CCC(N5CCN(C)CC5)CC4)cc3)nc3ccc(F)cc23)c1` to `C=CC(=O)Nc1cccc(Nc2nc(Nc3ccc(N4CCC(N5CCN(C)CC5)CC4)cc3OC)nc3ccc(Cl)cc23)c1`, the IC50 at 72 h rises from 1680 nM to 6600 nM (3.9-fold).

Going from `CC(C)=CC(=O)Nc1cccc(Nc2nc(Nc3ccc(N4CCN(C)CC4)cc3)nc3ccc(Cl)cc23)c1` to `CCC(=O)Nc1cccc(Nc2nc(Nc3ccc(N4CCN(C)CC4)cc3)nc3ccc(Cl)cc23)c1`, the IC50 at 72 h rises from 3290 nM to greater than 10000 nM.

Going from `C=CC(=O)Nc1cccc(Nc2nc(Nc3ccc(N4CCN(C)CC4)cc3)nc3ccc(I)cc23)c1` to `C=CC(=O)Nc1cccc(Nc2nc(Nc3ccc(N4CCN(C)CC4)cc3)nc3cccc(F)c23)c1`, the IC50 at 72 h falls from greater than 10000 nM to 1840 nM.

Compared with `C=CC(=O)Nc1cccc(Nc2nc(Nc3ccc(C4CCN(C)CC4)cc3)nc3ccc(F)cc23)c1`, `C=CC(=O)Nc1cccc(Nc2nc(Nc3ccc(N4CCN(C)CC4)cc3)nc3cccc(Cl)c23)c1` is lower in IC50 at 72 h: greater than 10000 nM for the first, 4580 nM for the second.

system: not listed separately; assay: Cytotoxicity against human A549 cells harboring wild type EGFR assessed as reduction in cell viability measured after 72 hrs by MTT assay; assay type: toxicity, cell-based; settings: not given

Compared with `C=CC(=O)Nc1cccc(Nc2nc(Nc3ccc(N4CCC(N(C)C)CC4)cc3OC)nc3ccc(F)cc23)c1`, `C=CC(=O)Nc1cccc(Nc2nc(Nc3ccc(N4CCC(N(C)C)CC4)cc3)nc3ccc(F)cc23)c1` is lower in IC50 at 72 h: greater than 10000 nM for the first, 1260 nM for the second.

Going from `C=CC(=O)Nc1ccc(Nc2nc(Nc3ccc(N4CCN(C)CC4)cc3)nc3ccc(Cl)cc23)cc1` to `C=CC(=O)Nc1cccc(Nc2nc(Nc3ccc(N4CCN(C)CC4)cc3)nc3cc(Cl)ccc23)c1`, the IC50 at 72 h falls from greater than 10000 nM to 5790 nM.

First: C=CC(=O)Nc1cccc(Nc2nc(Nc3ccc(N4CCN(C)CC4)cc3)nc3cc(OC)ccc23)c1
Second: C=CC(=O)Nc1cccc(Nc2nc(Nc3ccc(N4CCN(C)CC4)cc3)nc3cc(F)ccc23)c1
The IC50 at 72 h of the first is higher: greater than 10000 nM for the first, 7810 nM for the second.

First: C=CC(=O)Nc1cccc(Nc2nc(Nc3ccc(N4CCN(C)CC4)c(F)c3)nc3ccc(Cl)cc23)c1
Second: C=CC(=O)Nc1cccc(Nc2nc(Nc3ccc(N4CCN(C)CC4)cc3OC)nc3ccc(Cl)cc23)c1
The IC50 at 72 h of the first is 2.3-fold lower: 1500 nM for the first, 3520 nM for the second.

`C=CC(=O)Nc1cccc(Nc2nc(Nc3ccc(N4CCOCC4)cc3)nc3ccc(Cl)cc23)c1` and `C=CC(=O)Nc1cccc(Nc2nc(Nc3ccc(N4CCC(N5CCOCC5)CC4)cc3)nc3ccc(Cl)cc23)c1` cannot be ordered by IC50 at 72 h: greater than 10000 nM for the first, greater than 10000 nM for the second.

Going from `C=CC(=O)Nc1cccc(Nc2nc(Nc3ccc(N4CCC(N5CCN(C)CC5)CC4)cc3)nc3ccc(F)cc23)c1` to `C=CC(=O)Nc1cccc(Nc2nc(Nc3ccc(N4CCC(N5CCN(C)CC5)CC4)cc3OC)nc3ccc(Cl)cc23)c1`, the IC50 at 72 h rises from 1520 nM to greater than 10000 nM.

Going from `CC(C)=CC(=O)Nc1cccc(Nc2nc(Nc3ccc(N4CCN(C)CC4)cc3)nc3ccc(Cl)cc23)c1` to `CCC(=O)Nc1cccc(Nc2nc(Nc3ccc(N4CCN(C)CC4)cc3)nc3ccc(Cl)cc23)c1`, the IC50 at 72 h rises from 5330 nM to greater than 10000 nM.

Compared with `C=CC(=O)Nc1cccc(Nc2nc(Nc3ccc(N4CCN(C)CC4)cc3)nc3ccc(I)cc23)c1`, `C=CC(=O)Nc1cccc(Nc2nc(Nc3ccc(N4CCN(C)CC4)cc3)nc3cccc(F)c23)c1` is lower in IC50 at 72 h: greater than 10000 nM for the first, 2310 nM for the second.

First: C=CC(=O)Nc1cccc(Nc2nc(Nc3ccc(C4CCN(C)CC4)cc3)nc3ccc(F)cc23)c1
Second: C=CC(=O)Nc1cccc(Nc2nc(Nc3ccc(N4CCN(C)CC4)cc3)nc3cccc(Cl)c23)c1
The IC50 at 72 h of the first is 1.5-fold higher: 5860 nM for the first, 3880 nM for the second.

system: NCI-H1975; assay: Antiproliferative activity against human NCI-H1975 cells harboring EGFR L858R/T790M mutant assessed as reduction in cell viability measured after 72 hrs by MTT assay; assay type: functional, cell-based; settings: NCI-H1975, 72 h

First: C=CC(=O)Nc1cccc(Nc2nc(Nc3ccc(N4CCC(N(C)C)CC4)cc3OC)nc3ccc(F)cc23)c1
Second: C=CC(=O)Nc1cccc(Nc2nc(Nc3ccc(N4CCC(N(C)C)CC4)cc3)nc3ccc(F)cc23)c1
The pIC50 of the first is 1.17 log units lower: 5.61 for the first, 6.78 for the second.

`C=CC(=O)Nc1ccc(Nc2nc(Nc3ccc(N4CCN(C)CC4)cc3)nc3ccc(Cl)cc23)cc1` and `C=CC(=O)Nc1cccc(Nc2nc(Nc3ccc(N4CCN(C)CC4)cc3)nc3cc(Cl)ccc23)c1` are within 0.2 log units of each other in pIC50: 5.63 for the first, 5.48 for the second.

Compared with `C=CC(=O)Nc1cccc(Nc2nc(Nc3ccc(N4CCN(C)CC4)cc3)nc3cc(OC)ccc23)c1`, `C=CC(=O)Nc1cccc(Nc2nc(Nc3ccc(N4CCN(C)CC4)cc3)nc3cc(F)ccc23)c1` is 0.52 log units higher in pIC50: 5.11 for the first, 5.63 for the second. The second is the more potent here.

First: C=CC(=O)Nc1cccc(Nc2nc(Nc3ccc(N4CCN(C)CC4)c(F)c3)nc3ccc(Cl)cc23)c1
Second: C=CC(=O)Nc1cccc(Nc2nc(Nc3ccc(N4CCN(C)CC4)cc3OC)nc3ccc(Cl)cc23)c1
The pIC50 of the first is 0.86 log units higher: 7.35 for the first, 6.49 for the second. The first is the more potent here.

`C=CC(=O)Nc1cccc(Nc2nc(Nc3ccc(N4CCOCC4)cc3)nc3ccc(Cl)cc23)c1` and `C=CC(=O)Nc1cccc(Nc2nc(Nc3ccc(N4CCC(N5CCOCC5)CC4)cc3)nc3ccc(Cl)cc23)c1` are within 0.2 log units of each other in pIC50: 5.07 for the first, 5.12 for the second.

Compared with `C=CC(=O)Nc1cccc(Nc2nc(Nc3ccc(N4CCC(N5CCN(C)CC5)CC4)cc3)nc3ccc(F)cc23)c1`, `C=CC(=O)Nc1cccc(Nc2nc(Nc3ccc(N4CCC(N5CCN(C)CC5)CC4)cc3OC)nc3ccc(Cl)cc23)c1` is 1.75 log units lower in pIC50: 7.62 for the first, 5.87 for the second.

First: CC(C)=CC(=O)Nc1cccc(Nc2nc(Nc3ccc(N4CCN(C)CC4)cc3)nc3ccc(Cl)cc23)c1
Second: CCC(=O)Nc1cccc(Nc2nc(Nc3ccc(N4CCN(C)CC4)cc3)nc3ccc(Cl)cc23)c1
The pIC50 of the first is 0.92 log units higher: 6.06 for the first, 5.14 for the second. The first is the more potent here.

First: C=CC(=O)Nc1cccc(Nc2nc(Nc3ccc(N4CCN(C)CC4)cc3)nc3ccc(I)cc23)c1
Second: C=CC(=O)Nc1cccc(Nc2nc(Nc3ccc(N4CCN(C)CC4)cc3)nc3cccc(F)c23)c1
The pIC50 of the first is 0.76 log units lower: 5.24 for the first, 6.00 for the second. The second is the more potent here.

`C=CC(=O)Nc1cccc(Nc2nc(Nc3ccc(C4CCN(C)CC4)cc3)nc3ccc(F)cc23)c1` and `C=CC(=O)Nc1cccc(Nc2nc(Nc3ccc(N4CCN(C)CC4)cc3)nc3cccc(Cl)c23)c1` are within 0.2 log units of each other in pIC50: 5.96 for the first, 5.99 for the second.

system: HCC827; assay: Antiproliferative activity against human HCC827 cells harboring EGFR exon del 19 mutant assessed as reduction in cell viability measured after 72 hrs by MTT assay; assay type: functional, cell-based; settings: HCC827, 72 h

First: C=CC(=O)Nc1cccc(Nc2nc(Nc3ccc(N4CCC(N(C)C)CC4)cc3OC)nc3ccc(F)cc23)c1
Second: C=CC(=O)Nc1cccc(Nc2nc(Nc3ccc(N4CCC(N(C)C)CC4)cc3)nc3ccc(F)cc23)c1
The pIC50 of the first is 1.29 log units lower: 5.96 for the first, 7.25 for the second. The second is the more potent here.

`C=CC(=O)Nc1ccc(Nc2nc(Nc3ccc(N4CCN(C)CC4)cc3)nc3ccc(Cl)cc23)cc1` and `C=CC(=O)Nc1cccc(Nc2nc(Nc3ccc(N4CCN(C)CC4)cc3)nc3cc(Cl)ccc23)c1` are within 0.2 log units of each other in pIC50: 5.89 for the first, 5.73 for the second.

Compared with `C=CC(=O)Nc1cccc(Nc2nc(Nc3ccc(N4CCN(C)CC4)cc3)nc3cc(OC)ccc23)c1`, `C=CC(=O)Nc1cccc(Nc2nc(Nc3ccc(N4CCN(C)CC4)cc3)nc3cc(F)ccc23)c1` is 0.61 log units higher in pIC50: 5.37 for the first, 5.98 for the second. The second is the more potent here.

Going from `C=CC(=O)Nc1cccc(Nc2nc(Nc3ccc(N4CCN(C)CC4)c(F)c3)nc3ccc(Cl)cc23)c1` to `C=CC(=O)Nc1cccc(Nc2nc(Nc3ccc(N4CCN(C)CC4)cc3OC)nc3ccc(Cl)cc23)c1`, the pIC50 falls from 7.72 to 6.92 (0.80 log units).

`C=CC(=O)Nc1cccc(Nc2nc(Nc3ccc(N4CCOCC4)cc3)nc3ccc(Cl)cc23)c1` and `C=CC(=O)Nc1cccc(Nc2nc(Nc3ccc(N4CCC(N5CCOCC5)CC4)cc3)nc3ccc(Cl)cc23)c1` are within 0.2 log units of each other in pIC50: 5.05 for the first, 5.24 for the second.

Compared with `C=CC(=O)Nc1cccc(Nc2nc(Nc3ccc(N4CCC(N5CCN(C)CC5)CC4)cc3)nc3ccc(F)cc23)c1`, `C=CC(=O)Nc1cccc(Nc2nc(Nc3ccc(N4CCC(N5CCN(C)CC5)CC4)cc3OC)nc3ccc(Cl)cc23)c1` is 1.97 log units lower in pIC50: 7.74 for the first, 5.77 for the second.

Compared with `CC(C)=CC(=O)Nc1cccc(Nc2nc(Nc3ccc(N4CCN(C)CC4)cc3)nc3ccc(Cl)cc23)c1`, `CCC(=O)Nc1cccc(Nc2nc(Nc3ccc(N4CCN(C)CC4)cc3)nc3ccc(Cl)cc23)c1` is 0.86 log units lower in pIC50: 6.05 for the first, 5.19 for the second.

First: C=CC(=O)Nc1cccc(Nc2nc(Nc3ccc(N4CCN(C)CC4)cc3)nc3ccc(I)cc23)c1
Second: C=CC(=O)Nc1cccc(Nc2nc(Nc3ccc(N4CCN(C)CC4)cc3)nc3cccc(F)c23)c1
The pIC50 of the first is 0.77 log units lower: 5.34 for the first, 6.11 for the second. The second is the more potent here.

First: C=CC(=O)Nc1cccc(Nc2nc(Nc3ccc(C4CCN(C)CC4)cc3)nc3ccc(F)cc23)c1
Second: C=CC(=O)Nc1cccc(Nc2nc(Nc3ccc(N4CCN(C)CC4)cc3)nc3cccc(Cl)c23)c1
The pIC50 of the first is 0.28 log units lower: 5.73 for the first, 6.01 for the second.

From ChEMBL document CHEMBL5380860, “Design, Synthesis, and Antitumor Activity of Potent and Selective EGFR L858R/T790M Inhibitors and Identification of a Combination Therapy to Overcome Acquired Resistance in Models of Non-small-cell Lung Cancer” (J Med Chem, 2023)
